Here are results for 13 compounds from EP4563579A1, “MACROCYCLIC EGFR INHIBITOR, AND PREPARATION METHOD THEREFOR AND PHARMACEUTICAL USE THEREOF” (Abbisko Therapeutics Co., Ltd., priority 2022, dated 2024).

For orientation: IC50 means the midpoint of a concentration-inhibition curve.

Holding throughout (assay type): cell-based
The test system of assay [1] is Ba/F3 EGFR-DEL19-T790M-C797S (DTC). In words: Cell proliferation assay (CellTiter-Glo), Ba/F3 DTC. As to conditions: Ba/F3 EGFR-DEL19-T790M-C797S cells, 72 hour incubation, CTG readout; read-out: IC50 BaF3 DTC. The method, then: (§1) • DMEM Medium (Gibco, Cat#11965118) • RPMI1640 Medium (Gibco, Cat#11875119) • Fetal Bovine Serum (FBS) (GBICO, Cat#10099-141) • CellTiter-Glo® Luminescent Cell Viability Assay Kit (Promega, Cat#G7572) 96-well, Black, Clear Flat Bottom Plate (Corning®, Cat# 3603)
(§2) • SpectraMax Multimode Microplate Reader MD, 2104-0010A; • CO2 Incubator, Thermo Scientific 3100 Series; • Biosafety Cabinet, Thermo Scientific, 1300 Series A2; • Inverted Microscope, Olympus, CKX41SF; • Siemens Refrigerator, KK25E76TI.
(§3) • 1. Cell Culture and Inoculation: • (1) Harvest cells in a logarithmic growth phase and count the cells using a […]. Test cell viability using a trypan blue exclusion method to ensure that cell viability is above 90%. • (2) Adjust the cell concentration to desired final density; and add 90 µL of cell suspension to a 96-well plate. • (3) Incubate the cells overnight at 37°C, under 5% CO2 and 95% humidity in the 96-well plate. • 2. T0 Reference Data: • (1) Add 10 µL PBS to each well of the T0 plate containing cells. • (2) Thaw the CTG reagent and equilibrate the plate to room temperature for 30 minutes. • (3) Add an equal volume of CTG solution to each well. • (4) Lyse cells by shaking on an orbital shaker for 5 minutes. • (5) Leave the plate at room temperature for 20 minutes to stabilize the luminescence signal. • (6) Read the T0 […]. • 3. Compound Dilution and Addition • (1) Add a corresponding volume of DMSO to a corresponding compound powder according to the compound information sheet to prepare a 10 mM stock solution. • (2) Prepare 1000-fold and 3.16-fold diluted compound solutions. • (3) Dilute the 1000× diluted compound solution 100-fold with PBS to prepare a 10-fold compound solution, with a maximum concentration of 10 µM, nine concentrations and 3.16-fold dilution. Then add 10 µL of the drug solution concentration to individual wells of the 96-well plate seeded with cells. Test each compound concentration in triplicate wells, and the final DMSO concentration is 0.1%. • (4) Incubate the cells in the 96-well plate containing the drug compounds at 37°C, under 5% CO2, and 95% humidity for an additional 72 hour period prior to performing the CTG analysis. • 4. Fluorescence Signal Reading • (1) Thaw the CTG reagent and equilibrate the plate to room temperature for 30 minutes. • (2) Add an equal volume of CTG solution to each well. • (3) Lyse cells by shaking on an orbital shaker for 5 minutes. • (4) Leave the plate at room temperature for 20 minutes to stabilize the […]. • (5) Read fluorescence value. • 5. Data Processing
(§4) Analyze the data by using GraphPad Prism 7.0 software, and use Non-linear S-curve regression to fit the dose-response curves, to calculate the IC50 values (in nM). The specific experiment results are presented in Table 1: [formula] Table 1: Biology Test Results
In general terms: Cellular ATP, detected with luciferase, serves as a proxy for viable cell number.

Assay [2] has as its system Ba/F3 EGFR-DEL19-C797S (DC). In words: Cell proliferation assay (CellTiter-Glo), Ba/F3 DC. As to conditions: Mus musculus, BaF3; Ba/F3 EGFR-DEL19-C797S cells, 72 hour incubation, CTG readout. The method, then: as §1, §2, §3, §4
Assay [3] concerns Ba/F3 EGFR-L858R-C797S (LC). In words: Cell proliferation assay (CellTiter-Glo), Ba/F3 LC. As to conditions: Mus musculus, BaF3; Ba/F3 EGFR-L858R-C797S cells, 72 hour incubation, CTG readout. The method, then: as §1, §2, §3, §4
Another assay concerns A431 WT. In words: Cell proliferation assay (CellTiter-Glo), A431 WT. As to conditions: Homo sapiens, A-431; A431 WT cells, 72 hour incubation, CTG readout. On the procedure:
as §1, §2, §3, §4

For assay [4], the system named is Ba/F3 EGFR-L858R-T790M-C797S (LTC). In words: Cell proliferation assay (CellTiter-Glo), Ba/F3 LTC. As to conditions: Mus musculus, BaF3; Ba/F3 EGFR-L858R-T790M-C797S cells, 72 hour incubation, CTG readout. On the procedure:
as §1, §2, §3, §4

Take `Cn1ncc2c1OCC1(CCCC1)Cn1nc(N3CC[C@](C)(O)C3)c3cnc(cc31)Nc1ccnc-2n1` [Example 23, (S)-3-methyl-1-(1'-methylspiro(cyclopentane-1,6'-8-oxa-3-aza-4(6,1)-pyrazolo[4,3-c]pyridina-2(2,4)-pyrimidina-1(4,5)-pyrazolacyclooctaphane)-3'-yl)pyrrolidin-3-ol]: the concentration for half-maximal inhibition (IC50) in assay [1] was 3.5 nM; in assay [2], 7.8 nM; in assay [3], 19.5 nM; in the assay on A431 WT it was 771 nM; in assay [4] it was 8.1 nM.
The corresponding values for `Cn1ncc2c1OCC1(CCCC1)Cn1nc(N3CC[C@@H](CO)C3)c3cnc(cc31)Nc1ccnc-2n1` [Example 21, (R)-(1-(1'-methylspiro(cyclopentane-1,6'-8-oxa-3-aza-4(6,1)-pyrazolo[4,3-c]pyridina-2(2,4)-pyrimidina-1(4,5) -pyrazolacyclooctaphane)-3 '-yl)pyrrolidin-3-yl)methanol] are 3.4 nM, 7.1 nM, 15.8 nM, 171 nM and 4.7 nM.
For `Cn1ncc2c1OCC1(CCCC1)Cn1nc(N3CC[C@H](CS(=O)(=O)C4CCC4)C3)c3cnc(cc31)Nc1ccnc-2n1` [Example 44, (S)-3'-(3-((cyclobutylsulfonyl)methyl)pyrrolidin-1-yl)-1 '-methylspiro(cyclopentane-1,6'-8-oxa-3-aza-4(6,1)-pyrazolo[4,3-c]pyridina-2(2,4)-pyrimidina-1(4,5)-pyrazolacyclooctaphane)], the IC50 in assay [1] came out at 4 nM; in assay [2], 10.1 nM; in assay [3], 5.3 nM; in the assay with A431 WT, 1130 nM; in assay [4] it was 1.9 nM.
The corresponding values for `Cn1ncc2c1OCC1(CCCC1)Cn1nc(N3CC[C@@H](CS(C)(=O)=O)C3)c3cnc(cc31)Nc1ccnc-2n1` [Example 27, (R)-1'-methyl-3'-(3-((methylsulfonyl)methyl)pyrrolidin-1-yl)spiro(cyclopentane-1 ,6'-8-oxa-3-aza-4(6,1)-pyrazolo[4,3-c]pyridina-2(2,4)-pyrimidina-1(4,5)-pyrazolacyclooctaphane)] are 1 nM, 1.1 nM, 13.4 nM, 587 nM and 5.2 nM.
For the compound `CN1CCC(F)(C#Cc2nn3c4cc(ncc24)Nc2ccnc(n2)-c2cnn(C)c2OCC2(CCOCC2)C3)CC1` [Example 11, 3'-((4-fluoro-1-methylpiperidin-4-yl)ethynyl)-1'-methyl-2,3,5,6-tetrahydrospiro(pyran-4,6'-8-oxa-3-aza-4(6,1)-pyrazolo[4,3-c]pyridina-2(2,4)-pyrimidina-1(4,5)-pyrazolacyclooctaphane)], the half-maximal inhibitory concentration (IC50) in assay [1] was determined as 92.2 nM; in assay [2] it was 128 nM; in assay [3], 187 nM; in the assay with A431 WT, 807 nM; in assay [4] it was 133 nM.
As for `CN1CCC(C#Cc2nn3c4cc(ncc24)Nc2ccnc(n2)-c2cnn(C)c2OCC2(CCOCC2)C3)CC1` [Example 4, 1'-methyl-3'-((1-methylpiperidin-4-yl)ethynyl)-2,3,5,6-te trahydrospiro(pyran-4,6'-8-oxa-3-aza-4(6,1)-pyrazolo[4,3-c]pyridina-2(2,4)-pyrimidina-1(4,5)-pyrazolacyclooctaphane)], the 50% inhibitory concentration (IC50) amounted to 15.6 nM in assay [1]; 26.8 nM in assay [2]; 50.3 nM in assay [3]; 822 nM in the assay with A431 WT; 12.4 nM in assay [4].
For `CN1CC(C#Cc2nn3c4cc(ncc24)Nc2ccnc(n2)-c2cnn(C)c2OCC2(CCCC2)C3)C1` [Example 8, 1'-methyl-3'-((1-methylazetidin-3-yl)ethynyl)spiro(cyclopentane-1,6'-8-oxa-3-aza-4(6,1)-pyrazolo[4,3-c]pyridina-2(2,4)-pyrimidina-1(4,5)-pyrazolacyclooctaphane)], the IC50 in assay [1] worked out at 27.8 nM; in assay [2], 31.5 nM; in assay [3], 63.5 nM; in the assay on A431 WT, 499 nM; in assay [4] it was 39.4 nM.
The corresponding values for `CC#Cc1nn2c3cc(ncc13)Nc1ccnc(n1)-c1cnn(C)c1OCC[C@@H]2C` [Example A1, (S)-1^1,5-dimethyl-4^3-(prop-1-yn-1-yl)-1^1H,4^1H-8-oxa-3-aza-4(6,1)-pyrazolo[4,3-c]py ridina-2(2,4)-pyrimidina-1(4,5)-pyrazolacyclooctaphane] are 64.9 nM, 40.9 nM, 299 nM, 2700 nM and 262 nM.
For `Cn1ncc2c1OCC1(CCCC1)Cn1nc(N3CC[C@H](CS(=O)(=O)C4CCCC4)C3)c3cnc(cc31)Nc1ccnc-2n1` [Example 45, (S)-3'-(3-((cyclopentylsulfonyl)methyl)pyrrolidin-1-yl)-1'-methylspiro(cyclopentane-1,6'-8-oxa-3-aza-4(6,1)-pyrazolo[4,3-c]pyridina-2(2, 4)-pyrimidina-1(4,5)-pyrazolacyclooctaphane)] the same measures were 3.9 nM, 4 nM, 2.9 nM, 738 nM and 1.1 nM.
The corresponding values for `Cn1ncc2c1OCC1(CCCCC1)Cn1nc(N3CC[C@H](CS(C)(=O)=O)C3)c3cnc(cc31)Nc1ccnc-2n1` [Example 36, (S)-1'-methyl-3'-(3-((methylsulfonyl)methyl)pyrrolidin-1-yl)spiro(cyclohexane-1,6' -8-oxa-3-aza-4(6,1)-pyrazolo[4,3-c]pyridina-2(2,4)-pyrimidina-1(4,5)-pyrazolacyclooctaphane)] are 1.5 nM, 2.5 nM, 5.1 nM, 614 nM and 2 nM.
As to `CCCCS(=O)(=O)C[C@H]1CCN(c2nn3c4cc(ncc24)Nc2ccnc(n2)-c2cnn(C)c2OCC2(CCCC2)C3)C1` [Example 43, (S)-3'-(3-((butylsulfonyl)methyl)pyrrolidin-1-yl)-1'-me thylspiro(cyclopentane-1,6' -8-oxa-3-aza-4(6,1)-pyrazolo[4,3-c]pyridina-2(2,4)-pyrimidina-1(4,5)-pyrazolacyclooctaphane)], the IC50 in assay [1] is 3.6 nM; in assay [2], 5 nM; in assay [3], 2.9 nM; with A431 WT, 700 nM; in assay [4], 1.3 nM.
The corresponding values for `Cn1ncc2c1OCC1(CCCC1)Cn1nc(N3CC[C@@H](NS(C)(=O)=O)C3)c3cnc(cc31)Nc1ccnc-2n1` [Example 48, (R)-N-(1-(1'-methylspiro(cyclopentane-1,6'-8-oxa-3-aza-4(6,1)-pyrazolo[4,3-c]pyridina-2(2,4)-pyrimidina-1(4,5)-pyrazolacyclooctaphane)-3'-yl)pyrrolidin-3-yl)metha nesulfonamide] are 2 nM, 2.5 nM, 7.6 nM, 357 nM and 4.5 nM.
The corresponding values for `CCS(=O)(=O)N[C@H]1CCN(c2nn3c4cc(ncc24)Nc2ccnc(n2)-c2cnn(C)c2OCC2(CCCC2)C3)C1` [Example 57] are 3.1 nM, 5.3 nM, 22.8 nM, 251 nM and 7.9 nM.
